Assay results published in PubChem BioAssay AID1963980 (Molecular Pharmacology Branch, DTP, NCI, 2024).
Several values for one entry are separate records, joined by “and”; a condition that tells them apart may be missing. Equal values may be shown once.

Tested on: 475296-252-R-J1-PDC spheroid viability
Assay: Anticancer human tumor 475296-252-R-J1-PDC patient-derived rectal carcinoma cell line growth inhibition [PI3K]
Details: spheroids with HUVEC and MSC; for viability, T/C: stronger effect = lower value
Outline: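 Viability of mixed-cell spheroids was determined after exposure to pairwise combinations, one partner being inavolisib, alpelisib, duvelisib or copanlisib. Highest tested concentration matched clinical Cmax where known and 10 microM where not, descending in half-log steps.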

[1] = curve of first compound, second compound 0.00316 µM
[2] = curve of first compound, second compound 0.01 µM
[3] = curve of first compound, second compound 0.0316 µM
[4] = curve of first compound, second compound 0.1 µM
[5] = curve of first compound, second compound 0.316 µM
[6] = curve of first compound, second compound 1 µM
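Also: spheroids exposed to agents for seven days before readout.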

`Cn1cnc2c(F)c(Nc3ccc(Br)cc3Cl)c(C(=O)NOCCO)cc21` + CC(Nc1ccc2c(c1)OCCn1cc(N3C(=O)OCC3C(F)F)nc1-2)C(N)=O was tested, and the IC50 [1] was over 3 µM, the IC50 [2] was over 3 µM and the IC50 [3] was over 3 µM. The IC50 [4] was 1.21 µM, the IC50 [5] was 0.415 µM and the IC50 [6] was 0.142 µM. The viability, T/C (second compound 0.00316 µM, first compound 0.00949 µM) was 96.4%, the viability, T/C (second compound 0.00316 µM, first compound 0.03 µM) was 93.1% and the viability, T/C (second compound 0.00316 µM, first compound 0.0949 µM) was 89%. The viability, T/C (second compound 0.00316 µM, first compound 0.3 µM) was 74.8%, the viability, T/C (second compound 0.00316 µM, first compound 0.949 µM) was 74.8% and the viability, T/C (second compound 0.00316 µM, first compound 3 µM) was 60.8%. It also gave a viability, T/C (second compound 0.01 µM, first compound 0.00949 µM) of 104%, a viability, T/C (second compound 0.01 µM, first compound 0.03 µM) of 90.9% and a viability, T/C (second compound 0.01 µM, first compound 0.0949 µM) of 90.4%. For the same molecule, the viability, T/C (second compound 0.01 µM, first compound 0.3 µM) was 65.2%, the viability, T/C (second compound 0.01 µM, first compound 0.949 µM) was 72.8% and the viability, T/C (second compound 0.01 µM, first compound 3 µM) was 61.4%. The viability, T/C (second compound 0.0316 µM, first compound 0.00949 µM) was 95.4%, the viability, T/C (second compound 0.0316 µM, first compound 0.03 µM) was 96% and the viability, T/C (second compound 0.0316 µM, first compound 0.0949 µM) was 84.8%. For the same molecule, the viability, T/C (second compound 0.0316 µM, first compound 0.3 µM) was 77.3%, the viability, T/C (second compound 0.0316 µM, first compound 0.949 µM) was 67.8% and the viability, T/C (second compound 0.0316 µM, first compound 3 µM) was 52.3%. For the same molecule, the viability, T/C (second compound 0.1 µM, first compound 0.00949 µM) was 78.8%, the viability, T/C (second compound 0.1 µM, first compound 0.03 µM) was 82.9% and the viability, T/C (second compound 0.1 µM, first compound 0.0949 µM) was 71.5%. The viability, T/C (second compound 0.1 µM, first compound 0.3 µM) was 65%, the viability, T/C (second compound 0.1 µM, first compound 0.949 µM) was 53% and the viability, T/C (second compound 0.1 µM, first compound 3 µM) was 40.4%. It also gave a viability, T/C (second compound 0.316 µM, first compound 0.00949 µM) of 76.5%, a viability, T/C (second compound 0.316 µM, first compound 0.03 µM) of 89.5% and a viability, T/C (second compound 0.316 µM, first compound 0.0949 µM) of 66%. For the same molecule, the viability, T/C (second compound 0.316 µM, first compound 0.3 µM) was 54.8%, the viability, T/C (second compound 0.316 µM, first compound 0.949 µM) was 38.7% and the viability, T/C (second compound 0.316 µM, first compound 3 µM) was 23.6%. It also gave a viability, T/C (second compound 1 µM, first compound 0.00949 µM) of 84.5%, a viability, T/C (second compound 1 µM, first compound 0.03 µM) of 70.2% and a viability, T/C (second compound 1 µM, first compound 0.0949 µM) of 57%. The viability, T/C (second compound 1 µM, first compound 0.3 µM) was 38.4%, the viability, T/C (second compound 1 µM, first compound 0.949 µM) was 25.4% and the viability, T/C (second compound 1 µM, first compound 3 µM) was 13.5%.

In the case of `CCCS(=O)(=O)Nc1ccc(F)c(C(=O)c2c[nH]c3ncc(-c4ccc(Cl)cc4)cc23)c1F` + CC(Nc1ccc2c(c1)OCCn1cc(N3C(=O)OCC3C(F)F)nc1-2)C(N)=O, the IC50 [1] is reported as over 10 µM, the IC50 [2] is reported as over 10 µM and the IC50 [3] is reported as over 10 µM. For the same molecule, the IC50 [4] was over 10 µM, the IC50 [5] was over 10 µM and the IC50 [6] was over 10 µM. For the same molecule, the viability, T/C (second compound 0.00316 µM, first compound 0.0316 µM) was 84.5%, the viability, T/C (second compound 0.00316 µM, first compound 0.1 µM) was 84.3% and the viability, T/C (second compound 0.00316 µM, first compound 0.316 µM) was 81.7%. For the same molecule, the viability, T/C (second compound 0.00316 µM, first compound 1 µM) was 85.2%, the viability, T/C (second compound 0.00316 µM, first compound 3.16 µM) was 92.6% and the viability, T/C (second compound 0.00316 µM, first compound 10 µM) was 101%. For the same molecule, the viability, T/C (second compound 0.01 µM, first compound 0.0316 µM) was 102%, the viability, T/C (second compound 0.01 µM, first compound 0.1 µM) was 89% and the viability, T/C (second compound 0.01 µM, first compound 0.316 µM) was 90.4%. The viability, T/C (second compound 0.01 µM, first compound 1 µM) was 83.2%, the viability, T/C (second compound 0.01 µM, first compound 3.16 µM) was 82.6% and the viability, T/C (second compound 0.01 µM, first compound 10 µM) was 91.7%. For the same molecule, the viability, T/C (second compound 0.0316 µM, first compound 0.0316 µM) was 97.5%, the viability, T/C (second compound 0.0316 µM, first compound 0.1 µM) was 94.8% and the viability, T/C (second compound 0.0316 µM, first compound 0.316 µM) was 96.8%. The viability, T/C (second compound 0.0316 µM, first compound 1 µM) was 89.8%, the viability, T/C (second compound 0.0316 µM, first compound 3.16 µM) was 75.9% and the viability, T/C (second compound 0.0316 µM, first compound 10 µM) was 88.3%. For the same molecule, the viability, T/C (second compound 0.1 µM, first compound 0.0316 µM) was 83.8%, the viability, T/C (second compound 0.1 µM, first compound 0.1 µM) was 96.6% and the viability, T/C (second compound 0.1 µM, first compound 0.316 µM) was 89.6%. It also gave a viability, T/C (second compound 0.1 µM, first compound 1 µM) of 84.5%, a viability, T/C (second compound 0.1 µM, first compound 3.16 µM) of 81.4% and a viability, T/C (second compound 0.1 µM, first compound 10 µM) of 81.9%. For the same molecule, the viability, T/C (second compound 0.316 µM, first compound 0.0316 µM) was 77.4%, the viability, T/C (second compound 0.316 µM, first compound 0.1 µM) was 94.5% and the viability, T/C (second compound 0.316 µM, first compound 0.316 µM) was 89.5%. It also gave a viability, T/C (second compound 0.316 µM, first compound 1 µM) of 79.1%, a viability, T/C (second compound 0.316 µM, first compound 3.16 µM) of 81.4% and a viability, T/C (second compound 0.316 µM, first compound 10 µM) of 70.4%. The viability, T/C (second compound 1 µM, first compound 0.0316 µM) was 90.7%, the viability, T/C (second compound 1 µM, first compound 0.1 µM) was 92.6% and the viability, T/C (second compound 1 µM, first compound 0.316 µM) was 80.4%. The viability, T/C (second compound 1 µM, first compound 1 µM) was 90.3%, the viability, T/C (second compound 1 µM, first compound 3.16 µM) was 83.1% and the viability, T/C (second compound 1 µM, first compound 10 µM) was 72.7%.

`CC(Cn1ccc(-c2ccc(C#N)c(Cl)c2)n1)NC(=O)c1cc(C(C)O)[nH]n1` (stereo unspecified) was tested, and the viability, T/C (compound 0.0316 µM) was 105% [middle of 4 runs], the viability, T/C (compound 0.1 µM) was 96.9% [middle of 4 runs] and the viability, T/C (compound 0.316 µM) was 99% (2×) and 93.4% and 120%. The viability, T/C (compound 1 µM) was 105% [middle of 4 runs], the viability, T/C (compound 3.16 µM) was 101% [middle of 4 runs] and the viability, T/C (compound 10 µM) was 105% [middle of 4 runs]. It also gave an IC50 (curve of compound) of over 10 µM.
